Test results reported in ChEMBL document CHEMBL5154681, “Small Amphiphilic Peptides: Activity Against a Broad Range of Drug-Resistant Bacteria and Structural Insight into Membranolytic Properties” (J Med Chem, 2022).
≈ marks a conversion by molar mass, not a printed value. Calls of active or inactive are those of the source. The rule behind the calls is not given here. Square brackets hold non-standard residues; d marks the D form. Peptide text beside a SMILES is read from it. Dip = N[C@H](C(=O)O)C(c1ccccc1)c1ccccc1; 2Nal = N[C@@H](Cc1ccc2ccccc2c1)C(=O)O

Tests used:
[1] = system: Staphylococcus aureus; experiment: Bactericidal activity against methicillin resistant Staphylococcus aureus ATCC BAA-1556 assessed as time required for complete reduction of bacterial growth at MIC by counting formed colonies; assay type: functional
[2] = Cytotoxicity against HEK293 assessed as cell viability at 50 ug/ml incubated for 24 hrs by microplate spectrophotometer analysis method relative to control; assay type: toxicity, cell-based; conditions: human, HEK293 cells, at 50 µg/mL, read-out: Activity
[3] = Hemolytic activity in human RBC assessed as hemolysis incubated for 2 hrs by spectrophotometer analysis; assay type: toxicity, cell-based, Erythrocyte; conditions: human red blood cells (erythrocytes)
[4] = system: Klebsiella pneumoniae; experiment: Antibacterial activity against carbapenem-resistant Klebsiella pneumoniae ATCC BAA-2470 incubated for 24 hrs by microtiter plate method; assay type: functional
[5] = system: Escherichia coli; experiment: Antibacterial activity against Escherichia coli ATCC 25922 after 24 hrs in presence of 1 mM of MgCl2 at by microtiter plate method; assay type: functional
[6] = system: Pseudomonas aeruginosa; experiment: Antibacterial activity against imipenem resistant Pseudomonas aeruginosa ATCC BAA-1744 incubated for 24 hrs by microtiter plate method; assay type: functional
[7] = system: Staphylococcus aureus; experiment: Antibacterial activity against Staphylococcus aureus ATCC 29213 incubated for 24 hrs by microtiter plate method; assay type: functional; conditions: Staphylococcus aureus, ATCC 29213, read-out: MIC
[8] = system: Cell membrane; experiment: Membrano-lytic effect in cytoplasmic membrane of Escherichia coli ATCC BAA-2452 assessed as disruption by measuring propidium iodide fluorescence at 4 times MIC incubated for 1 hr by FACscan flow cytometer analysis
[9] = system: HepaRG; experiment: Cytotoxicity against human HPRGC10 assessed as cell viability at 150 ug/ml incubated for 24 hrs by microplate spectrophotometer analysis method relative to control; assay type: functional; conditions: read-out: Activity
[10] = system: Streptococcus pneumoniae; experiment: Antibacterial activity against multidrug resistant […] ATCC 700677 incubated for 24 hrs by microtiter plate method; assay type: functional
[11] = system: Lipid bilayer; experiment: Membrano-lytic effect in bacterial inner membrane mimic DOPC/DOPG (7:3) large unilamellar vesicles assessed as calcein leakage measured at 50 microg/ml, incubated for 40 mins by multimode microplate reader assay; assay type: cell membranes; conditions: dose 50.0 µg/ml
[12] = Cytotoxicity against HEK293 assessed as cell viability at 150 ug/ml incubated for 24 hrs by microplate spectrophotometer analysis method relative to control; assay type: toxicity, cell-based; conditions: human, HEK293 cells, at 150 µg/mL, read-out: Activity
[13] = system: Cell membrane; experiment: Membrano-lytic effect in cytoplasmic membrane of Escherichia coli ATCC BAA-2452 assessed as disruption by measuring propidium iodide fluorescence at MIC incubated for 1 hr by FACscan flow cytometer analysis
[14] = system: Enterococcus faecium; experiment: Antibacterial activity against vancomycin-resistant Enterococcus faecium ATCC 700221 incubated for 24 hrs by microtiter plate method; assay type: functional
[15] = system: Staphylococcus aureus; experiment: Antibacterial activity against methicillin resistant Staphylococcus aureus ATCC BAA-1556 after 24 hrs in presence of 1 mM of by microtiter plate method; assay type: functional
[16] = system: Enterococcus faecalis; experiment: Potency index, ratio of daptomycin MIC to test compound MIC for antibacterial activity against vancomycin resistant Enterococcus faecalis ATCC 51575; assay type: functional
[17] = system: Escherichia coli; experiment: Antibacterial activity against Escherichia coli ATCC 25922 incubated for 24 hrs; assay type: functional
[18] = system: Escherichia coli; experiment: Antibacterial activity against Escherichia coli ATCC 25922 incubated for 24 hrs by microtiter plate method; assay type: functional; conditions: Escherichia coli
[19] = system: Staphylococcus aureus; experiment: Bactericidal activity against methicillin resistant Staphylococcus aureus ATCC BAA-1556 assessed as time required for complete reduction of bacterial growth at 4 times MIC by counting formed colonies; assay type: functional
[20] = system: Escherichia coli; experiment: Antibacterial activity against Escherichia coli ATCC BAA-2452 assessed as membrane atrophy at 4 times of MIC incubated for 30 mins by FE-SEM analysis; assay type: functional, organism-based
[21] = system: Staphylococcus aureus; experiment: Antibacterial activity against methicillin resistant Staphylococcus aureus ATCC BAA-1556 after 24 hrs in presence of 2 mM of CaCl2 by microtiter plate method; assay type: functional
[22] = system: Pseudomonas aeruginosa; experiment: Antibacterial activity against Pseudomonas aeruginosa ATCC 27883 incubated for 24 hrs by microtiter plate method; assay type: functional; conditions: Pseudomonas aeruginosa, ATCC 27883, read-out: MIC
[23] = Cytotoxicity against human MRC5 assessed as cell viability at 50 ug/ml incubated for 24 hrs by microplate spectrophotometer analysis method relative to control; assay type: toxicity, cell-based; conditions: MRC5 cells, at 50 µg/mL, read-out: Activity
[24] = system: Staphylococcus aureus; experiment: Antibacterial activity against methicillin resistant Staphylococcus aureus ATCC BAA-1556 incubated for 24 hrs; assay type: functional
[25] = system: Lipid bilayer; experiment: Membrano-lytic effect in bacterial inner membrane mimic DOPC/DOPG (7:3) large unilamellar vesicles assessed as calcein leakage measured at 50 microg/ml, incubated for 50 mins by multimode microplate reader assay; assay type: cell membranes; conditions: dose 50.0 µg/ml

| Compound | Activity [1] | viability at 24 h, 50 ug/ml [2] | HC50 at 2 h [3] | MIC [4] | MIC [5] | MIC [6] | MIC [7] | Activity [8] | viability at 150 µg/mL [9] | MIC [10] | viability at 24 h, 150 ug/ml [12] | Activity [13] | MIC [14] | MIC [15] | Ratio [16] | MBC [17] | Activity [19] | Activity [20] | MIC [21] | MIC [22] | other results |
| --- | --- | --- | --- | --- | --- | --- | --- | --- | --- | --- | --- | --- | --- | --- | --- | --- | --- | --- | --- | --- | --- |
| N=C(N)NCCC[C@@H]1NC(=O)[C@H](CCCNC(=N)N)NC(=O)[C@H](CCCNC(=N)N)NC(=O)[C@H](Cc2ccc3ccccc3c2)NC(=O)[C@H](Cc2ccc3ccccc3c2)NC(=O)[C@H](Cc2ccc3ccccc3c2)NC(=O)[C@H](CCCNC(=N)N)NC1=O (cyclo(RRRR[2Nal][2Nal][2Nal])) | Active | 80% | 80 µg/mL | 12.5 µg/mL (≈ 10.3 µM) | 25 µg/mL | 12.5 µg/mL (≈ 10.3 µM) | 3.1 µg/mL (≈ 2.55 µM) | 88% | 61% | 12.5 µg/mL (≈ 10.3 µM) | 58% | 50% | 3.1 µg/mL (≈ 2.55 µM) | 3.1 µg/mL | 2 | 100 µg/mL (≈ 82.2 µM) | Active | Active | 3.1 µg/mL | 12.5 µg/mL (≈ 10.3 µM) | Activity [11]: 100%; MIC ([18]; ATCC 25922, 24 h, read-out: MIC): 25 µg/mL (≈ 20.6 µM); viability at 24 h, 50 ug/ml [23]: 93%; MBC [24]: 6.2 µg/mL (≈ 5.1 µM) |
| N=C(N)NCCC[C@@H]1NC(=O)[C@H](CCCNC(=N)N)NC(=O)[C@H](CCCNC(=N)N)NC(=O)[C@H](C(c2ccccc2)c2ccccc2)NC(=O)[C@H](C(c2ccccc2)c2ccccc2)NC(=O)[C@H](C(c2ccccc2)c2ccccc2)NC(=O)[C@H](CCCNC(=N)N)NC1=O (cyclo(RRRR[Dip][Dip][Dip])) | Active | 80% | 70 µg/mL | 12.5 µg/mL (≈ 9.66 µM) | 12.5 µg/mL | 12.5 µg/mL (≈ 9.66 µM) | 3.1 µg/mL (≈ 2.39 µM) | 78% | 61% | 25 µg/mL (≈ 19.3 µM) | 58% | 50% | 3.1 µg/mL (≈ 2.39 µM) | 6.2 µg/mL | 2 | 25 µg/mL (≈ 19.3 µM) | Active | Active | 3.1 µg/mL | 12.5 µg/mL (≈ 9.66 µM) | Activity [25]: 100%; MIC ([18]; ATCC 25922, read-out: MIC): 12.5 µg/mL (≈ 9.66 µM); viability at 24 h, 50 ug/ml [23]: 93%; MBC [24]: 6.2 µg/mL (≈ 4.79 µM) |
